The text below walks through data of the CheMixHub ionic liquid set.

Broadly, the viscosity is the internal friction of a fluid under shear. The low end stands for a thin fluid, the high end for a thick fluid.

± gives the uncertainty stated by the source.

The nature of the data set: xn = mol fraction of the nth substance listed. The note with it: 100 kPa.

Turning to `CCCCCn1cc[n+](CCCCC)c1.O=S(=O)([N-]S(=O)(=O)C(F)(F)F)C(F)(F)F` + O, the viscosity is 35.17 ± 0.31 mPa·s (313.15 K, x2 = 0.1575); 15.44 ± 0.14 mPa·s (338.15 K, x2 = 0.1575); 9.31 ± 0.08 mPa·s (358.15 K, x2 = 0.1575).

As to `CC[n+]1ccn(C)c1.N#C[S-]` + CC[n+]1ccn(C)c1.N#C[N-]C#N, under “318.15 K, x1 = 1”, the electrical conductivity was found to be 3.92 ± 0.16 S/m. Further, the viscosity came to 12.98 ± 0.61 mPa·s (318.15 K, x1 = 1); 10.25 ± 0.48 mPa·s (328.15 K, x1 = 1); 8.3 ± 0.39 mPa·s (338.15 K, x1 = 1); 7.53 ± 0.36 mPa·s (343.15 K, x1 = 1).
